In patent publication EP1401829B1, “NOVEL HETEROCYCLIC ANTIBACTERIAL COMPOUNDS” (Microbiotix, Inc., priority 2001, dated 2002) one finds MIC data, which are given here for 3 compounds.

In brackets after ≈: the same amount, converted by molar mass. Like-named read-outs stand apart in the source and are kept apart here.

Common to all, as to assay: Minimal Inhibitory Concentration (MIC) determination, 96 well plates
One test concerns B. subtilis. It is filed as cell-based, Bacillus subtilis. The settings on record: Bacillus subtilis; HBI medium, 16 to 18 hours at 37°C; read-out: MIC (µg/ml) B. subtilis. A digest of the protocol:
(§1)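 Broth growth in Heart-Brain Infusion medium, seeded at about 1x10^5 CFU/ml, 16 to 18 hours at 37°C. Growth read at OD 600 nm as percent of untreated control; five concentrations per drug, five data points each, MIC reported in µg/ml.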

The next test deals with E. fecium. The test is classed as cell-based, Enterococcus fecium. Particulars: Enterococcus; HBI medium, 16 to 18 hours at 37°C; read-out: MIC (µg/ml) E. fecium. In outline: as §1
For the next test, the system named is E. fecalis. The test is classed as cell-based, Enterococcus fecalis. The settings on record: Enterococcus; HBI medium, 16 to 18 hours at 37°C; read-out: MIC (µg/ml) E. fecalis. A digest of the protocol: as §1
For a further test, the system named is S.aureus (Smith). The test is classed as cell-based, Staphylococcus aureus. Particulars: Staphylococcus aureus. In outline: as §1
The next test relates to E. coli. The test is classed as cell-based, Escherichia coli. Particulars: Escherichia coli; HBI medium, 16 to 18 hours at 37°C; read-out: MIC (µg/ml) E. coli. A digest of the protocol: (§2)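 Cultures seeded at approximately 1x10^5 CFU/ml in Heart-Brain Infusion medium were exposed to five compound concentrations, five data points each, for 16 to 18 hours at 37°C. Growth at OD 600 nm was expressed as percent of control, and MIC values are given in µg/ml.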

The next test relates to S. aureus. The test is classed as cell-based, Staphylococcus aureus. Particulars: Staphylococcus aureus, read-out: MIC (µg/ml) S. aureus. In outline: as §2
[1] abbreviates: HBI medium, 16 to 18 hours at 37°C, read-out: MIC (µg/ml) S.aureus (Smith).
[2] abbreviates: table of MSSA/MRSA strains, read-out: MIC (µg/ml) S. aureus (Smith).
The mark [3] stands for this setting: HBI medium, 16 to 18 hours at 37°C.

Regarding `CCc1cc(Nc2cc(=O)n(CCCCN3CCN(c4cc5c(cc4F)c(=O)c(C(=O)O)cn5C4CC4)CC3)c(=O)[nH]2)ccc1C` [Compound 2, 3-{4-[1-(1-cyclopropyl-3-carboxy-4-oxo-6-fluoro-7-quinolyl)-4-piperazinyl]butyl}-6-(3-ethyl-4-methylanilino)uracil], the MIC with B. subtilis turned out to be 0.156 µg/mL (≈ 0.247 µM); with E. fecium, 1.25 µg/mL (≈ 1.98 µM); in the test on E. fecalis, 1.25 µg/mL (≈ 1.98 µM); with S.aureus (Smith) (setting [1]) it was 0.313 µg/mL (≈ 0.496 µM); in the test on S.aureus (Smith) (setting [2]), 0.313 µg/mL (≈ 0.496 µM); in the test on E. coli it was 2.5 µg/mL (≈ 3.96 µM). In addition, the MIC with S. aureus (setting [3]) and in the test with S. aureus (table of MSSA/MRSA strains) was 0.625 µg/mL (≈ 0.991 µM) in each case.
Take `CCc1cc(Nc2cc(=O)n(CCCCN3CCN(c4cc5c(cc4F)c(=O)c(C(=O)O)cn5C4CC4)CC3)c(=O)[nH]2)ccc1C.CS(=O)(=O)O` [Compound 10, 3-{4-[1-(1-cyclopropyl-3-carboxy-4-oxo-6-fluoro-7-quinolyl)-4-piperazinyl]butyl}-6-(3-ethyl-4-methylanilino)uracil methanesulfonate]: the MIC with B. subtilis came to 0.313 µg/mL; in the test with E. fecium, 2.5 µg/mL; in the test on E. fecalis, 1.25 µg/mL; with S.aureus (Smith) (setting [1]), 0.625 µg/mL; with S.aureus (Smith) (setting [2]), 0.625 µg/mL; in the test with E. coli, 5 µg/mL. In addition, the MIC in the test with S. aureus (setting [3]) and in the test on S. aureus (table of MSSA/MRSA strains) was 0.625 µg/mL in each case.
With `CCc1cc(Nc2cc(=O)n(CCCCN3CCN(c4c(F)cc5c(=O)c(C(=O)O)cn(C6CC6)c5c4F)CC3C)c(=O)[nH]2)ccc1C` (stereo not drawn) [Compound 70, 3-{4-[1-(1-cyclopropyl-3-carboxy-4-oxo-6,8-difluoro-7-quinolyl)-3-methyl-4-piperazinyl]butyl}-6-(3-ethyl-4-methylanilino)uracil], the MIC with B. subtilis was 0.156 µg/mL (≈ 0.235 µM); in the test with E. fecium, 1.25 µg/mL (≈ 1.89 µM); in the test with E. fecalis it was 0.95 µg/mL (≈ 1.43 µM); in the test with S.aureus (Smith) (setting [1]), 0.156 µg/mL (≈ 0.235 µM); with S.aureus (Smith) (setting [2]), 0.21 µg/mL (≈ 0.317 µM); with E. coli, over 80 µg/mL. The values for the MIC in the test with S. aureus (setting [3]) and with S. aureus (table of MSSA/MRSA strains) were 0.313 µg/mL (≈ 0.472 µM) and 0.39 µg/mL (≈ 0.588 µM), respectively.
